Laboratory results: the supplement of paper PMC10307832

What was measured:
Assay in all cases: relative viability (nuclei count vs DMSO), 5 days (fraction); higher = more cells survive
CAL-12T = tested on: CAL-12T
In short: (§1)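 Relative viability divides the nuclei count in treated wells by that in vehicle wells. Lung cancer cell lines were seeded in 1536-well plates, dosed by pin tool the next day, and fixed and stained after 5 days in one step with final 0.05% Triton X-100, 1% formaldehyde and 1 ug/ml Hoechst. Dosing was a single drug or a fixed anchor-drug dose plus five library-drug doses (not always all listed) in √10 steps, and values are medians of duplicate plates imaged at 4×.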

NCI-H1792 = tested on: NCI-H1792
In short: as §1

NCI-H727 = tested on: NCI-H727
In short: as §1

NCI-H2228 = tested on: NCI-H2228
In short: as §1

BEN = tested on: BEN
In short: as §1

LCLC-97TM1 = tested on: LCLC-97TM1
In short: as §1

201T = tested on: 201T
In short: as §1

NCI-H1793 = tested on: NCI-H1793
In short: as §1

SK-LU-1 = tested on: SK-LU-1
In short: as §1

NCI-H3122 = tested on: NCI-H3122
In short: as §1

NCI-H1395 = tested on: NCI-H1395
In short: as §1

LXF-289 = tested on: LXF-289
In short: as §1

COc1cc2nccc(Oc3ccc(NC(=O)Nc4cc(C)on4)c(Cl)c3)c2cc1OC [Tivozanib] + CS(=O)(=O)N1CCN(Cc2cc3nc(-c4cccc5[nH]ncc45)nc(N4CCOCC4)c3s2)CC1 [Pictilisib] (partner 1 µM)
relative viability (CAL-12T; first compound 0.05 µM): 0.608 | relative viability (CAL-12T; first compound 0.5 µM): 0.404 | relative viability (NCI-H1792; first compound 0.005 µM): 0.248 | relative viability (NCI-H1792; first compound 0.01581 µM): 0.27 | relative viability (NCI-H1792; first compound 0.05 µM): 0.289 | relative viability (NCI-H1792; first compound 0.1581 µM): 0.283 | relative viability (NCI-H1792; first compound 0.5 µM): 0.274 | relative viability (NCI-H727; first compound 0.005 µM): 0.349 | relative viability (NCI-H727; first compound 0.01581 µM): 0.56 | relative viability (NCI-H727; first compound 0.05 µM): 0.351 | relative viability (NCI-H727; first compound 0.5 µM): 0.398 | relative viability (NCI-H2228; first compound 0.005 µM): 0.402 | relative viability (NCI-H2228; first compound 0.01581 µM): 0.421 | relative viability (NCI-H2228; first compound 0.05 µM): 0.528 | relative viability (NCI-H2228; first compound 0.1581 µM): 0.297 | relative viability (NCI-H2228; first compound 0.5 µM): 0.514 | relative viability (BEN; first compound 0.005 µM): 0.61 | relative viability (BEN; first compound 0.01581 µM): 0.541 | relative viability (BEN; first compound 0.05 µM): 0.603 | relative viability (BEN; first compound 0.5 µM): 0.505 | relative viability (LCLC-97TM1; first compound 0.005 µM): 0.206 | relative viability (LCLC-97TM1; first compound 0.01581 µM): 0.23 | relative viability (LCLC-97TM1; first compound 0.1581 µM): 0.119 | relative viability (LCLC-97TM1; first compound 0.5 µM): 0.164 | relative viability (201T; first compound 0.005 µM): 0.377 | relative viability (201T; first compound 0.01581 µM): 0.69 | relative viability (201T; first compound 0.05 µM): 0.686 | relative viability (201T; first compound 0.1581 µM): 0.588 | relative viability (201T; first compound 0.5 µM): 0.632 | relative viability (NCI-H1793; first compound 0.005 µM): 0.222 | relative viability (NCI-H1793; first compound 0.01581 µM): 0.257 | relative viability (NCI-H1793; first compound 0.05 µM): 0.364 | relative viability (NCI-H1793; first compound 0.5 µM): 0.292 | relative viability (SK-LU-1; first compound 0.005 µM): 0.618 | relative viability (SK-LU-1; first compound 0.01581 µM): 0.465 | relative viability (SK-LU-1; first compound 0.05 µM): 0.483 | relative viability (SK-LU-1; first compound 0.1581 µM): 0.336 | relative viability (SK-LU-1; first compound 0.5 µM): 0.55 | relative viability (NCI-H3122; first compound 0.005 µM): 0.568 | relative viability (NCI-H3122; first compound 0.01581 µM): 0.547 | relative viability (NCI-H3122; first compound 0.05 µM): 0.598 | relative viability (NCI-H3122; first compound 0.1581 µM): 0.644 | relative viability (NCI-H3122; first compound 0.5 µM): 0.789 | relative viability (NCI-H1395; first compound 0.005 µM): 0.671 | relative viability (NCI-H1395; first compound 0.01581 µM): 0.746 | relative viability (NCI-H1395; first compound 0.05 µM): 0.769 | relative viability (NCI-H1395; first compound 0.1581 µM): 0.627 | relative viability (NCI-H1395; first compound 0.5 µM): 0.678 | relative viability (LXF-289; first compound 0.005 µM): 0.736 | relative viability (LXF-289; first compound 0.01581 µM): 0.814 | relative viability (LXF-289; first compound 0.05 µM): 0.758 | relative viability (LXF-289; first compound 0.1581 µM): 0.764 | relative viability (LXF-289; first compound 0.5 µM): 0.807
